# Laboratory results as given in US12377117B2, “Hyaluronic acid nanoparticles comprising NADPH oxidases inhibitors and uses in treating cancer” (priority 2019, dated 2025).
# “And” between values parts separate entries of the source, which are not always exact repeats. Equal values may be shown once. “Also recorded” adds a separate entry of the source.
# What was measured:
# [1] = tested on: Breast patient VII PDX tumors; assay: Breast patient VII PDX model, combination with DOX; format: in vivo, nude mice
# Protocol: Nude mice bearing orthotopic the Breast patient VII PDX tumors received 5 mg/kg equivalent dose of GKT831 or HANP/GKT831 combined with 5 mg/kg of DOX via the tail vein once a week for 5 administrations.
# Therapy resistant breast cancer PDX models were established in nude mice from surgically resected tumor tissues of both hormonal receptor positive (HR+) and triple negative breast cancer patients. Patient VII PDX model was derived tumor from HR+ breast cancer tissue that progressed after neoadjuvant therapy with Dox+ Taxol and adjuvant radiotherapy (50 Gy). Patient IX PDX model was derived from a breast cancer tissue that was resistant to Dox/cyclophosphamide/Taxol therapy and 50 Gy of pre-operative radiation therapy. Both patients developed recurrent tumors and deceased 23 and 25 months after surgery. […] CD44 is the cellular receptor for HA and therefore, HANP can target to CD44+ tumor and stromal cells. […] The targeted delivery of near-infrared (NIR) 830 dye labeled HANPs in the breast cancer PDX models were examined using optical imaging and histological analysis. […] Accumulation of HANPs in the liver was further examined.
# The inhibition of NOX1/4 on tumor growth and sensitization of therapeutic responses to a chemotherapy drug, DOX, were examined in the breast Patient VII and Patient IX PDX models growing in the mammary fat pad of nude mice.
# [2] = tested on: Breast patient IX PDX tumors; assay: Breast patient IX PDX model, combination with Dox; format: in vivo, nude mice
# [3] = tested on: human breast cancer MCF-7 cells; assay: Cell proliferation assay on MCF-7 cells; format: cell-based; settings: MCF7, read-out: IC50, growth inhibition
# [4] = tested on: ROS generation in MCF-7 cells (NOX1/4 activity); assay: ROS production in MCF-7 cells (DCFDA assay); format: cell-based, human
# [5] = tested on: Breast patient VII PDX tumors; assay: RNAseq gene expression profiles of PDX tumors after five i.v. treatments; format: in vivo, nude mice
# Protocol: ATFB was increased by HANP/GKT831 but decrease in GKT831 treated tumor.
# Biomaterial low molecular weight HA generated nanoparticle drug carrier has unique biological activities compared with other nanoparticle drug carriers. […] To understand molecular mechanisms by which HANP/GKT831 enhanced responses to DNA damaging drug and radiation, gene expression profiles of the breast patient VII PDX tumors following five i.v. treatments were analyzed using RNAseq assay. […] Since human immune cells express NOX2 subtype, HANP/GKT831 treatment may not affect tumor immune responses but GKT831 treatment may decrease immune responses in tumors. Furthermore, HANP/GKT831 inhibited the expression of mitochondrial electron transport and ATP production genes, which promote tumor cell death (FIG. 7B). […] Therefore, it is likely that those differences in gene regulation contributed to a strong chemo- and radiotherapy enhancement effect of HANP/GKT831.
smiles,measurement,setting,value
"COc1cccc2c1C(=O)c1c(O)c3c(c(O)c1C2=O)C[C@@](O)(C(=O)CO)C[C@@H]3O[C@H]1C[C@H](N)[C@H](O)[C@H](C)O1 [DOX, doxorubicin]",increase in tumor volume compared the starting tumor volume,[1]; 5 mg/kg i.v. weekly x5,150%
same,tumor growth inhibition compared to no treatment control,[1]; single agent treatment,~40% and 60%
"CN(C)c1cccc(-c2c3c(=O)n(-c4ccccc4Cl)[nH]c3cc(=O)n2C)c1 [GKT831, 2-(2-chlorophenyl)-4-(3-(dimethylamino)phenyl)-5-methyl-1,2-dihydro-3H-pyrazolo[4,3-c]pyridine-3,6(5H)-dione]",effect on tumor growth,[2],did not show a significant difference; also recorded: did not show any effect on tumor growth
same,anti-tumor effect / tumor growth inhibition,[1],did not show a significant difference
same,IC50,[3],30 µM
same,ROS generation,[4],did not show obvious ROS reduction
same,ATFB expression,[5]; PDX tumors (FIG. 7B),decrease
same,expression of mitochondrial electron transport and ATP production genes,[5]; PDX tumors (FIG. 7B),increased MT-ND and MT-CO2 expression
same,expression of mitochondrial electron transport and ATP production genes,"[5]; PDX tumors (FIG. 7B), listed as GKT 831",upregulated the expression of some of those genes
same,NOX2 gene expression,[5]; patient VII PDX tumors,downregulated
same,level of NOX4 gene expression,[5]; patient VII PDX tumors,did not significantly affect
